In patent US20250197382A1, “KIF18A INHIBITOR” (WIGEN BIOMEDICINE TECHNOLOGY (SHANGHAI) CO., LTD., priority 2022, published 2025):

The compounds below were run against Recombinant human KIF18A (1-467His-tagged) protein (Homo sapiens (Human), UniProt Q8NI77) (assay: KIF18A enzyme assay (microtubule-stimulated ATPase activity, ADP-Glo)). Conditions: 30 nM KIF18A, ATP 75 μM, read-out: inhibitory activity against KIF18A IC50.
Format: biochemical
In short: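 Baculovirus-expressed human KIF18A (1-467, His-tagged; 30 nM) preincubated 15 min at room temperature with compound (22-point 2-fold series) in pH 7.5 Tris buffer containing 30 μg/mL pig microtubules and 1 μM paclitaxel.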

Recombinant human KIF18A (1-467His-tagged) protein, sequence (Q8NI77 1-467): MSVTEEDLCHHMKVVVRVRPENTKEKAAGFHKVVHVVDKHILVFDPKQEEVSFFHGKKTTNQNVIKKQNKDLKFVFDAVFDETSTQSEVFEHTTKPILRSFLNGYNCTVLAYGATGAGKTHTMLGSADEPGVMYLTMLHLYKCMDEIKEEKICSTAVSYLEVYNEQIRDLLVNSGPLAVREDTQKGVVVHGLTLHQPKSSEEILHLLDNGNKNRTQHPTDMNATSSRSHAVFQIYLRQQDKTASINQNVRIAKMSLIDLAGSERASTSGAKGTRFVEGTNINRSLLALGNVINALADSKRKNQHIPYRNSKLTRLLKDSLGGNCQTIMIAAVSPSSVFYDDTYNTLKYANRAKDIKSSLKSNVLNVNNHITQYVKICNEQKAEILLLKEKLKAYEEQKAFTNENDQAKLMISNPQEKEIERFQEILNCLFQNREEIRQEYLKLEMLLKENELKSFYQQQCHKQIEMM
Recombinant human KIF18A (1-467His-tagged) protein, sequence (P02550 whole entry partner): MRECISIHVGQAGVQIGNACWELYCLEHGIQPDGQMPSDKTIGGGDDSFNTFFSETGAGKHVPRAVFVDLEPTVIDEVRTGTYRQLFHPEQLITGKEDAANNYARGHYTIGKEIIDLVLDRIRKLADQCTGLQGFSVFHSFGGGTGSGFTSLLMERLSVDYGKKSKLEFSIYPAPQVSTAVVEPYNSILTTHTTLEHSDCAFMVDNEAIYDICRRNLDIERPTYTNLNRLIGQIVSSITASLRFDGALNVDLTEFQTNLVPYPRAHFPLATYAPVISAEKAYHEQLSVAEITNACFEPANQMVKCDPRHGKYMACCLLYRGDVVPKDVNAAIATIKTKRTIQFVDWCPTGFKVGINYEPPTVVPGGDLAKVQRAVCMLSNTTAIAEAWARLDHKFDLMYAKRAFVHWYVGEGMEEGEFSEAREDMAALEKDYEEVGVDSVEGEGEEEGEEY
Recombinant human KIF18A (1-467His-tagged) protein, sequence (P02554 whole entry partner): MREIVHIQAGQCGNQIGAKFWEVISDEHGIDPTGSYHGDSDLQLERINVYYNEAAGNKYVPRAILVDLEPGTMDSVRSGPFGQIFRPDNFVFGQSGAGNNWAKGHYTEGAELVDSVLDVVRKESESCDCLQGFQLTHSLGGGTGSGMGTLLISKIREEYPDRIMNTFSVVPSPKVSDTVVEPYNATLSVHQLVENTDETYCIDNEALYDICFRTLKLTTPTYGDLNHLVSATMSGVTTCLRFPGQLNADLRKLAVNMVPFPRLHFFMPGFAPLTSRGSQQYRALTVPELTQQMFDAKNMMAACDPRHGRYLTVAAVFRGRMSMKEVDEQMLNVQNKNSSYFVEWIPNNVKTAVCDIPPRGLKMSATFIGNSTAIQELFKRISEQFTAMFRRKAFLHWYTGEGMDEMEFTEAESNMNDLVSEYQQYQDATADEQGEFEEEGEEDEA

SMILES | IC50 [nM]
Cn1ccc2cc(NC(=O)c3ccc(S(=O)(=O)NCCO)cc3N3CCC4(CC3)CC4)cc(OCCC(F)(F)F)c21 [Compound 405] | ≤ 100
O=C(Nc1ccc(S(=O)(=O)NCCO)cc1N1CCC2(CC1)CC2)c1cc2c(c(N3CCC(F)CC3)n1)OCC2 [Compound 121] | ≤ 100
O=C(Nc1cc2ccoc2c(OC2CCC2)n1)c1ccc(S(=O)(=O)NCCO)cc1N1CCC2(CC1)CC2 [Compound 215] | ≤ 100
C[C@@H](CO)NS(=O)(=O)c1ccc(NC(=O)c2cc3ccoc3c(N3CCC(F)(F)CC3)n2)c(N2CCC3(CC2)CC3)c1 [Compound 253] | ≤ 100
C[C@H](CO)NS(=O)(=O)c1ccc(C(=O)Nc2cc3ccoc3c(N3CCC(F)(F)CC3)n2)c(N2CCC3(CC2)CC3)c1 [Compound 222] | ≤ 100
O=C(Nc1cc(N2CCC(F)(F)CC2)c2occc2c1)c1ccc(S(=O)(=O)NCCO)cc1N1CCC2(CC1)CC2 [Compound 145] | ≤ 100
C[C@@H]1CN(c2nc(C(=O)Nc3ccc(NS(=O)(=O)[C@H](C)CO)cc3N3CCC4(CC3)CC4)cc3c2N(C)CC3)CCO1 [Compound 368] | ≤ 100
C[C@@H]1CN(c2nc(C(=O)Nc3ccc(NS(=O)(=O)[C@H](C)CO)cc3N3CCC4(CC3)CC4)cc3ccn(C)c23)CCO1 [Compound 496] | ≤ 100
C[C@H](CO)NS(=O)(=O)c1ccc(NC(=O)c2cc3c(c(N4CCC(F)(F)CC4)n2)N(C)CC3)c(N2CCC3(CC2)CC3)c1 [Compound 382] | ≤ 100
CN1CCc2cc(NC(=O)c3ccc(NS(=O)(=O)CCO)cc3N3CCC4(CC3)CC4)nc(N3CCC4(CC4)C3)c21 [Compound 326] | ≤ 100
O=C(Nc1ccc(NS(=O)(=O)CCO)cc1N1CCC2(CC1)CC2)c1cc2c(c(N3CCC4(CC4)C3)n1)OCC2 [Compound 102] | ≤ 100
O=C(Nc1cc(N2CC3CC3C2)c2occc2c1)c1ccc(NS(=O)(=O)CCO)cc1N1CCC2(CC1)CC2 (stereo not drawn) [Compound 138] | ≤ 100
O=C(Nc1ccc(S(=O)(=O)NCCO)cc1N1CCC2(CC1)CC2)c1cc2c(c(OC3CCC3)n1)OCC2 [Compound 119] | ≤ 100
Cn1ccc2cc(NC(=O)c3ccc(NS(=O)(=O)CCO)cc3N3CCC4(CC3)CC4)nc(OC3CCC3)c21 [Compound 455] | ≤ 100
C[C@@H]1CN(c2cc(NC(=O)c3ccc(NS(=O)(=O)[C@@H](C)CO)cc3N3CCC4(CC3)CC4)cc3ccn(C)c23)CCO1 [Compound 399] | ≤ 100
C[C@@H]1CN(c2nc(NC(=O)c3ccc(NS(=O)(=O)[C@@H](C)CO)cc3N3CCC4(CC3)CC4)cc3c2N(C)CC3)CCO1 [Compound 335] | ≤ 100
C[C@@H]1CN(c2cc(C(=O)Nc3ccc(S(=O)(=O)NCCO)cc3N3CCC4(CC3)CC4)cc3ccoc23)CCO1 [Compound 178] | ≤ 100
CN1CCc2cc(NC(=O)c3ccc(S(=O)(=O)NCCO)cc3N3CCC4(CC3)CC4)nc(NC(C)(C)CO)c21 [Compound 347] | ≤ 100
C[C@@H]1CN(c2nc(C(=O)Nc3ccc(NS(=O)(=O)CCO)cc3N3CCC4(CC3)CC4)cc3ccn(C)c23)CCO1 [Compound 482] | ≤ 100
CN1CCc2cc(C(=O)Nc3ccc(S(=O)(=O)NCCO)cc3N3CCC4(CC3)CC4)cc(N3CCOCC3)c21 [Compound 316] | ≤ 100
O=C(Nc1cc2c(c(N3CCC(F)(F)CC3)c1)NCC2)c1ccc(NS(=O)(=O)CCO)cc1N1CCC2(CC1)CC2 [Compound 523] | ≤ 100
CN1CCc2cc(NC(=O)c3ccc(NS(=O)(=O)CCO)cc3N3CCC4(CC3)CC4)nc(OCCC(F)(F)F)c21 [Compound 325] | ≤ 100
CN1CCc2cc(NC(=O)c3ccc(S(=O)(=O)NCCO)cc3N3CCC4(CC3)CC4)nc(N3CC4CC4C3)c21 (stereo not drawn) [Compound 346] | ≤ 100
Cn1ccc2cc(C(=O)Nc3ccc(NS(=O)(=O)CCO)cc3N3CCC4(CC3)CC4)nc(N3CCOCC3)c21 [Compound 492] | ≤ 100
O=C(Nc1cc(OC2CCC2)c2occc2c1)c1ccc(NS(=O)(=O)CCO)cc1N1CCC2(CC1)CC2 [Compound 135] | ≤ 100
CN1CCc2cc(NC(=O)c3ccc(S(=O)(=O)NCCO)cc3N3CCC4(CC3)CC4)cc(N3CC(F)(F)C3)c21 [Compound 276] | ≤ 100
Cn1ccc2cc(NC(=O)c3ccc(NS(=O)(=O)CCO)cc3N3CCC4(CC3)CC4)cc(N3CCC4(CC4)C3)c21 [Compound 390] | ≤ 100
Cn1ccc2cc(C(=O)Nc3ccc(S(=O)(=O)NCCO)cc3N3CCC4(CC3)CC4)cc(N3CCOCC3)c21 [Compound 444] | ≤ 100
CN1CCc2cc(NC(=O)c3ccc(NS(=O)(=O)CCO)cc3N3CCC4(CC3)CC4)nc(OC3CCC3)c21 [Compound 327] | ≤ 100
CN1CCc2cc(C(=O)Nc3ccc(S(=O)(=O)NCCO)cc3N3CCC4(CC3)CC4)nc(N3CCC4(CC4)C3)c21 [Compound 374] | ≤ 100

Other lines, results leading:

IC50 [nM] | SMILES
≤ 100 | O=C(Nc1cc2c(c(N3CCC(F)(F)CC3)c1)OCCO2)c1ccc(NS(=O)(=O)CCO)cc1N1CCC2(CC1)CC2 [Compound 543]
≤ 100 | O=C(Nc1cc(OC2CCC2)c2occc2c1)c1ccc(S(=O)(=O)NCCO)cc1N1CCC2(CC1)CC2 [Compound 151]
≤ 100 | Cn1ccc2cc(NC(=O)c3ccc(S(=O)(=O)NCCO)cc3N3CCC4(CC3)CC4)nc(N3CC(F)(F)C3)c21 [Compound 468]
≤ 100 | O=C(Nc1ccc(S(=O)(=O)NCCO)cc1N1CCC2(CC1)CC2)c1cc2ccoc2c(N2CC3CC3C2)n1 (stereo not drawn) [Compound 250]
≤ 100 | Cn1ccc2cc(NC(=O)c3ccc(NS(=O)(=O)CCO)cc3N3CCC4(CC3)CC4)nc(OCCC(F)(F)F)c21 [Compound 453]
≤ 100 | O=C(Nc1cc2c(c(N3CCC(F)CC3)n1)OCC2)c1ccc(S(=O)(=O)NCCO)cc1N1CCC2(CC1)CC2 [Compound 89]
≤ 100 | C[C@H]1CN(c2cc(C(=O)Nc3ccc(NS(=O)(=O)CCO)cc3N3CCC4(CC3)CC4)cc3ccn(C)c23)CCO1 [Compound 419]
≤ 100 | CN1CCc2cc(C(=O)Nc3ccc(NS(=O)(=O)CCO)cc3N3CCC4(CC3)CC4)nc(N3CC4CC4C3)c21 (stereo not drawn) [Compound 362]
≤ 100 | Cn1cnc2cc(NC(=O)c3ccc(NS(=O)(=O)CCO)cc3N3CCC4(CC3)CC4)cc(N3CCC(F)(F)CC3)c21 [Compound 528]
≤ 100 | C[C@@H]1CN(c2cc(C(=O)Nc3ccc(NS(=O)(=O)CCO)cc3N3CCC4(CC3)CC4)cc3ccoc23)CCO1 [Compound 162]
≤ 100 | C[C@H]1CN(c2cc(C(=O)Nc3ccc(NS(=O)(=O)CCO)cc3N3CCC4(CC3)CC4)cc3ccoc23)CCO1 [Compound 163]
≤ 100 | Cn1ccc2cc(NC(=O)c3ccc(NS(=O)(=O)CCO)cc3N3CCC4(CC3)CC4)cc(OC3CCC3)c21 [Compound 391]
≤ 100 | O=C(Nc1cc2ccoc2c(N2CCOCC2)n1)c1ccc(S(=O)(=O)NCCO)cc1N1CCC2(CC1)CC2 [Compound 220]
≤ 100 | Cn1ccc2cc(NC(=O)c3ccc(S(=O)(=O)NCCO)cc3N3CCC4(CC3)CC4)nc(OC3CCC3)c21 [Compound 471]
≤ 100 | O=C(Nc1ccc(S(=O)(=O)NCCO)cc1N1CCC2(CC1)CC2)c1cc2c(c(OCCC(F)(F)F)c1)OCC2 [Compound 53]
≤ 100 | O=C(Nc1cc2ccoc2c(N2CCC3(CC3)C2)n1)c1ccc(NS(=O)(=O)CCO)cc1N1CCC2(CC1)CC2 [Compound 198]
≤ 100 | C[C@H](CO)NS(=O)(=O)c1ccc(C(=O)Nc2cc3ccn(C)c3c(N3CCO[C@H](C)C3)n2)c(N2CCC3(CC2)CC3)c1 [Compound 480]

IC50 [nM] | SMILES
≤ 100 | CN1CCc2cc(NC(=O)c3ccc(NS(=O)(=O)CCO)cc3N3CCC4(CC3)CC4)nc(N3CCC(C)(F)C3)c21 (stereo not drawn) [Compound 328]
≤ 100 | CC(C)(CO)Nc1cc(C(=O)Nc2ccc(NS(=O)(=O)CCO)cc2N2CCC3(CC2)CC3)cc2c1OCC2 [Compound 43]
≤ 100 | Cn1ccc2cc(C(=O)Nc3ccc(NS(=O)(=O)CCO)cc3N3CCC4(CC3)CC4)cc(N3CCC(F)(F)CC3)c21 [Compound 417]
≤ 100 | Cn1ccc2cc(C(=O)Nc3ccc(S(=O)(=O)NCCO)cc3N3CCC4(CC3)CC4)cc(N3CC4CC4C3)c21 (stereo not drawn) [Compound 442]
≤ 100 | Cn1ccc2cc(NC(=O)c3ccc(NS(=O)(=O)CCO)cc3N3CCC4(CC3)CC4)nc(N3CCC(C)(F)C3)c21 (stereo not drawn) [Compound 456]
≤ 100 | O=C(Nc1cc2c(c(OC3CCC3)n1)OCC2)c1ccc(S(=O)(=O)NCCO)cc1N1CCC2(CC1)CC2 [Compound 87]
≤ 100 | CC1(F)CCN(c2cc(NC(=O)c3ccc(S(=O)(=O)NCCO)cc3N3CCC4(CC3)CC4)cc3c2OCC3)C1 (stereo not drawn) [Compound 24]
≤ 100 | C[C@@H](CO)NS(=O)(=O)c1ccc(C(=O)Nc2cc3ccoc3c(N3CCC(F)(F)CC3)n2)c(N2CCC3(CC2)CC3)c1 [Compound 221]
≤ 100 | C[C@@H](CO)NS(=O)(=O)c1ccc(NC(=O)c2cc3ccn(C)c3c(N3CCC(F)(F)CC3)n2)c(N2CCC3(CC2)CC3)c1 [Compound 509]
≤ 100 | C[C@@H]1CN(c2cc(NC(=O)c3ccc(NS(=O)(=O)[C@H](C)CO)cc3N3CCC4(CC3)CC4)cc3ccn(C)c23)CCO1 [Compound 400]
≤ 100 | O=C(Nc1ccc(S(=O)(=O)NCCO)cc1N1CCC2(CC1)CC2)c1cc2c(c(N3CCC4(CC4)C3)c1)OCC2 [Compound 54]
≤ 100 | CN1CCc2cc(C(=O)Nc3ccc(NS(=O)(=O)CCO)cc3N3CCC4(CC3)CC4)cc(OC3CCC3)c21 [Compound 295]
≤ 100 | CN1CCc2cc(NC(=O)c3ccc(NS(=O)(=O)CCO)cc3N3CCC4(CC3)CC4)cc(N3CCOCC3)c21 [Compound 268]
≤ 100 | C[C@@H]1CN(c2nc(C(=O)Nc3ccc(S(=O)(=O)NCCO)cc3N3CCC4(CC3)CC4)cc3ccoc23)CCO1 [Compound 242]
≤ 100 | O=C(Nc1ccc(NS(=O)(=O)CCO)cc1N1CCC2(CC1)CC2)c1cc2c(c(N3CCC(F)(F)CC3)n1)OCCC2 [Compound 548]
≤ 100 | C[C@H](CO)S(=O)(=O)Nc1ccc(C(=O)Nc2cc(N3CCC(F)(F)CC3)c3occc3c2)c(N2CCC3(CC2)CC3)c1 [Compound 142]
